Data on 1 molecule can be found in publication PMC7902475 (Traffic (Copenhagen, Denmark), 2020).

Where a chain is given by its changes, count along the chain named.

Experiment [1] has as its target T1, ALFY-FYVE (Homo sapiens, UniProt Q8IZQ1, E3471K).
T1 sequence (Q8IZQ1 3428-3518 E3471K): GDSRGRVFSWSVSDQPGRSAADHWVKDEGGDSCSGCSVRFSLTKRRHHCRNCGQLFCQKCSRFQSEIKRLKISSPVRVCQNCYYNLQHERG
The experiment is described as follows: 1H-15N HSQC NMR titration, chemical shift perturbation fit. It counts as binding.

The target in experiment [2] is T2, ALFY-FYVE (Homo sapiens, UniProt Q8IZQ1).
T2 sequence (Q8IZQ1 3428-3518): T1 sequence (Q8IZQ1 3428-3518 E3471K) with K44E
Described as above. The experiment is classed as binding.

As for `O=P(O)(O)O[C@@H]1[C@H](O)[C@H](OP(=O)(O)O)[C@@H](O)[C@H](O)[C@H]1O` [Ins(1,3)P2], the Kd (commonly the free concentration of one partner at which half of the binding sites on the other are occupied at equilibrium, for simple one-to-one binding) was 82.8 to 270 µM at ALFY-FYVE [1] and 50.5 to 184 µM on ALFY-FYVE [2].
